Test results published in patent US11554126B2, “Methods of treating residual lesions of vascular anomalies” (Georgetown University, priority 2017, dated 2023).

Test system: fibrofatty residua (FFR) from an involuted infantile hemangioma
Type: in vivo, human
Source text: A child was referred for treatment of an involuted IH. They were concerned about the visual appearance and the feeling of fullness caused by the significant convexity of the tumor. […] Initial measurement was 0.8 cm high and 7.5 cm wide. Management options including surgical excision and laser treatments were discussed. The patient's parent was apprehensive regarding surgery due to the inherent risks of scarring, nerve damage, infection, bleeding, and tissue necrosis.
As an alternative to these options, the present inventors considered administering DCA to the patient to reduce the protuberance of the mass. The associated risks of DCA administration, as well as off-label use, and lack of pediatric approval were discussed with the patient. Two series of injections were planned.
The site was anesthetized with a topical 40% lidocaine ointment. Following prepping with alcohol, an injection grid modified to overlay the affected tissue was applied. Subsequently, 0.2 mL of DCA concentrated to 2 mg/cm^2 was injected at 1 cm intervals using a total of 4.4 mL, followed by the application of ice packs.
As planned, injections were repeated 3 months later, using an additional 4.2 mL. […] The FFR measured 0.2 cm high and 6.4 cm wide (FIG. 2A-2B). […] Some of the superifical vessels appeared to resolve completely (clinically go away/not visible after treatment) post treatment.

C[C@H](CCC(=O)O)[C@H]1CC[C@H]2[C@@H]3CC[C@@H]4C[C@H](O)CC[C@]4(C)[C@H]3C[C@H](O)[C@]12C [DCA, 3α,12α-dihydroxy-5β-cholan-24-oic acid]
improvement in visual appearance and degree of protrusion (after two series of intralesional DCA, two months after second injection): significant improvement
duration of moderate post-injection pain, erythema, bruising, and swelling (female, human, in vivo): 24 to 48 h
improvement after the first treatment (first series, 0.2 mL injections at 1 cm intervals, total 4.4 mL): marginal improvement
skin tension (in vivo): either maintained or enhanced
tolerability of the procedure (in vivo): tolerated the procedure well
visible superficial vessels and telangiectasias in the FFR (post treatment, some of the vessels, some appeared to resolve completely): decreased in size, caliber, and/or lightened in color
FFR height, final measurement post-treatment (right flank, after two series of intralesional DCA (4.4 mL, then 4.2 mL 3 months later), two months after second injection, baseline 0.8 cm): 0.2 cm
FFR width, final measurement post-treatment (right flank, after two series of intralesional DCA (4.4 mL, then 4.2 mL 3 months later), two months after second injection, baseline 7.5 cm): 6.4 cm
